Experimental data: patent publication US20070048252A1, “Conjugates of the hydrophilic polymer and the molecules from boxwood extraction, and pharmaceutical compositions of the conjugates” (Beijingn Jenkem Technology CO., Ltd., priority 2003, published 2007)
“Also recorded” adds a separate entry of the source.

How the values were obtained:
[1] = test system: Kunming strain mice; test: Acute toxicity study, single IV or IP injection, 14 days observation; assay type: in vivo
Method: (§1) The conjugate obtained from example 8 was used as the testing reagent in the following study, while native Cyclovirobuxine D was used as positive control. Both samples were dissolved in sodium acetate (pH 5.7) before injection.
Kunming strain mice, 50% male and 50% formale, weighing 19-21 g, were randomly divided into 5 groups in the study. (1) native Cyclovirobuxine D, (2) the conjugate of PEG and Cyclovirobuxine D. The mice were fasted 12 hours before the injections. Each mice was given a single injection, and the volume for both IV and IP injection was based on 0.3 ml/10 g formulation. […] After 14 days, the mice still alive were executed and then analyzed.

[2] = test system: pituitrin-induced myocardial ischemic injury; test: Effect on pituitrin-induced myocardial ischemic injury (routine leads ECG: T wave, cardioverter); assay type: in vivo, SD rats; conditions: for effect on the cardioverter, in words: comparison with the controls groups, P>0.05; for inhibition of the rising of T wave by pituitrin-induced, in words: in 15 sec
Method: as §1
Methods: 50 normal SD rats of each sex, weighting 180-220 g, were randomly divided into five groups: controls, low dose of native Cyclovirobuxine D (0.25 mg/kg); middle dose of native Cyclovirobuxine D (0.5 mg/kg); low dose of the conjugate of Cyclovirobuxine D (0.25 mg/kg); middle dose of the conjugate of Cyclovirobuxine D (0.5 mg/kg). All rats were fasted before experiment for 12 hours, 1 g/kg urethane was administered by abdominal injection for anesthesia of the rats, and were placed in dorsal recumbency. A needle electrode was inserted into extremity subsurface carefully, examination leads ECG, holding 30 min, records the routine leads ECG The drug was given via vein of […] tail for each groups, after 10 min, 1.5 u/kg pituitrin was injected into dorsal veins of tongue, limited in 10 sec, records the routine leads ECG in 15 s, 30 s, 1, 2, 3, 5, 7, 10, 15 min after injected.

[3] = low dose 0.25 mg/kg iv, 1′ after pituitrin
[4] = low dose 0.25 mg/kg iv, 2′ after pituitrin
[5] = low dose 0.25 mg/kg iv, 3′ after pituitrin
[6] = low dose 0.25 mg/kg iv, 5′ after pituitrin
[7] = low dose 0.25 mg/kg iv, 7′ after pituitrin
[8] = low dose 0.25 mg/kg iv, 10′ after pituitrin
[9] = low dose 0.25 mg/kg iv, 15′ after pituitrin
[10] = low dose 0.25 mg/kg iv, 15″ after pituitrin 1.5 u/kg
[11] = low dose 0.25 mg/kg iv, 30″ after pituitrin
[12] = middle dose 0.5 mg/kg iv, 1′ after pituitrin
[13] = middle dose 0.5 mg/kg iv, 2′ after pituitrin
[14] = middle dose 0.5 mg/kg iv, 3′ after pituitrin
[15] = middle dose 0.5 mg/kg iv, 5′ after pituitrin
[16] = middle dose 0.5 mg/kg iv, 7′ after pituitrin
[17] = middle dose 0.5 mg/kg iv, 10′ after pituitrin
[18] = middle dose 0.5 mg/kg iv, 15′ after pituitrin
[19] = middle dose 0.5 mg/kg iv, 15″ after pituitrin 1.5 u/kg
[20] = middle dose 0.5 mg/kg iv, 30″ after pituitrin
[21] = middle dose 0.5 mg/kg iv, time 0

CN[C@@H](C)[C@H]1[C@H](O)C[C@@]2(C)[C@@H]3CC[C@H]4C(C)(C)[C@@H](NC)CC[C@@]45C[C@@]35CC[C@]12C [native Cyclovirobuxine D, Cyclovirobuxine D]
LD50 in IP injection ([1]; Kunming mice, single IP injection, 14 days observation): 97.52 mg/kg
LD50 in IV injection ([1]; Kunming mice, single IV injection, 14 days observation): 11.77 mg/kg
effect on the cardioverter, in words [2]: no significantly effect
effect on the cardioverter, in words ([2]; listed as Native Cyclovirobuxine D): no significant effect
cardioverter (X ± S) [2, 3]: 228.3 ± 44.41
rising of T wave (X ± S) [2, 3]: 0.22 ± 0.08
cardioverter (X ± S) [2, 4]: 250.3 ± 29.14
rising of T wave (X ± S) [2, 4]: 0.18 ± 0.065
cardioverter (X ± S) [2, 5]: 267.6 ± 44.71
rising of T wave (X ± S) [2, 5]: 0.21 ± 0.072
cardioverter (X ± S) [2, 6]: 266.4 ± 30.09
rising of T wave (X ± S) [2, 6]: 0.22 ± 0.081
cardioverter (X ± S) [2, 7]: 270.6 ± 30.52
rising of T wave (X ± S) [2, 7]: 0.21 ± 0.076
cardioverter (X ± S) [2, 8]: 289.8 ± 43.91
rising of T wave (X ± S) [2, 8]: 0.23 ± 0.075
cardioverter (X ± S) [2, 9]: 315.0 ± 63.39
rising of T wave (X ± S) [2, 9]: 0.24 ± 0.081
cardioverter (X ± S) [2, 10]: 351.6 ± 90.78
rising of T wave (X ± S) [2, 10]: 0.50 ± 0.092
cardioverter (X ± S) [2, 11]: 202.9 ± 42.85
rising of T wave (X ± S) [2, 11]: 0.23 ± 0.061
cardioverter (X ± S) ([2]; low dose 0.25 mg/kg iv, time 0): 392.4 ± 48.11
rising of T wave (X ± S) ([2]; low dose 0.25 mg/kg iv, time 0): 0.20 ± 0.040
cardioverter (X ± S) [2, 12]: 196.2 ± 52.90
rising of T wave (X ± S) [2, 12]: 0.23 ± 0.068
cardioverter (X ± S) [2, 13]: 215.4 ± 45.47
rising of T wave (X ± S) [2, 13]: 0.23 ± 0.051
cardioverter (X ± S) [2, 14]: 236.7 ± 47.92
rising of T wave (X ± S) [2, 14]: 0.23 ± 0.047
cardioverter (X ± S) [2, 15]: 256.6 ± 51.26
rising of T wave (X ± S) [2, 15]: 0.24 ± 0.040
cardioverter (X ± S) [2, 16]: 268.6 ± 53.15
rising of T wave (X ± S) [2, 16]: 0.25 ± 0.048
cardioverter (X ± S) [2, 17]: 260.8 ± 93.87
rising of T wave (X ± S) [2, 17]: 0.27 ± 0.044
cardioverter (X ± S) [2, 18]: 297.6 ± 41.30
rising of T wave (X ± S) [2, 18]: 0.26 ± 0.040
cardioverter (X ± S) [2, 19]: 331.1 ± 41.18
rising of T wave (X ± S) [2, 19]: 0.34 ± 0.119
cardioverter (X ± S) [2, 20]: 234.5 ± 85.06
rising of T wave (X ± S) [2, 20]: 0.19 ± 0.116
cardioverter (X ± S) [2, 21]: 389.6 ± 46.56
rising of T wave (X ± S) [2, 21]: 0.21 ± 0.052
inhibition of the rising of T wave by pituitrin-induced, in words ([2]; middle dose groups, 0.5 mg/kg, vs control group P<0.01): could inhibit

α-methoxy-polyethylene-glycol-ω-glu-glu-gly-Cyclovirobuxine D ester [Example 8]
toxicity compared with native Cyclovirobuxine D, in words ([1]; iv and ip administration, from LD50): lower toxicity
effect on the cardioverter, in words ([2]; listed as the conjugate of Cyclovirobuxine D): no significantly effect; also recorded: no significant effect
cardioverter (X ± S) [2, 3]: 150 ± 96.44
rising of T wave (X ± S) [2, 3]: 0.25 ± 0.062
cardioverter (X ± S) [2, 4]: 180 ± 60.00
rising of T wave (X ± S) [2, 4]: 0.22 ± 0.102
cardioverter (X ± S) [2, 5]: 200 ± 56.57
rising of T wave (X ± S) [2, 5]: 0.28 ± 0.071
cardioverter (X ± S) [2, 6]: 240 ± 69.28
rising of T wave (X ± S) [2, 6]: 0.33 ± 0.056
cardioverter (X ± S) [2, 7]: 260 ± 44.72
rising of T wave (X ± S) [2, 7]: 0.35 ± 0.067
cardioverter (X ± S) [2, 8]: 260 ± 44.72
rising of T wave (X ± S) [2, 8]: 0.32 ± 0.052
cardioverter (X ± S) [2, 9]: 300 ± 91.65
rising of T wave (X ± S) [2, 9]: 0.33 ± 0.069
cardioverter (X ± S) [2, 10]: 270 ± 145.94
rising of T wave (X ± S) [2, 10]: 0.24 ± 0.059
cardioverter (X ± S) [2, 11]: 200 ± 128.06
rising of T wave (X ± S) [2, 11]: 0.17 ± 0.123
cardioverter (X ± S) ([2]; low dose 0.25 mg/kg iv, time 0): 420 ± 60.00
rising of T wave (X ± S) ([2]; low dose 0.25 mg/kg iv, time 0): 0.25 ± 0.064
inhibition of the rising of T wave by pituitrin-induced, in words ([2]; low dose groups, 0.25 mg/kg, vs control groups P<0.01): could inhibit
cardioverter (X ± S) [2, 12]: 180 ± 60.00
rising of T wave (X ± S) [2, 12]: 0.28 ± 0.049
cardioverter (X ± S) [2, 13]: 200 ± 56.57
rising of T wave (X ± S) [2, 13]: 0.27 ± 0.029
cardioverter (X ± S) [2, 14]: 240 ± 0.00
rising of T wave (X ± S) [2, 14]: 0.28 ± 0.029
cardioverter (X ± S) [2, 15]: 260 ± 44.72
rising of T wave (X ± S) [2, 15]: 0.31 ± 0.059
cardioverter (X ± S) [2, 16]: 280 ± 56.57
rising of T wave (X ± S) [2, 16]: 0.31 ± 0.059
cardioverter (X ± S) [2, 17]: 280 ± 56.57
rising of T wave (X ± S) [2, 17]: 0.30 ± 0.065
cardioverter (X ± S) [2, 18]: 280 ± 56.57
rising of T wave (X ± S) [2, 18]: 0.33 ± 0.072
cardioverter (X ± S) [2, 19]: 340 ± 44.72
rising of T wave (X ± S) [2, 19]: 0.33 ± 0.123
cardioverter (X ± S) [2, 20]: 260 ± 107.70
rising of T wave (X ± S) [2, 20]: 0.22 ± 0.107
cardioverter (X ± S) [2, 21]: 420 ± 60.00
rising of T wave (X ± S) [2, 21]: 0.23 ± 0.046
